pEC50: −log10 of the molar value. In brackets after ≈: the same amount, converted by molar mass. Several values for one entry are separate records, joined by “and”; a condition that tells them apart may be missing. Equal values may be shown once.
What was measured:
[1] = tested on: HEPG22.2.15; experiment: Hepatitis B test: toxicity values; assay type: cell-based
[2] = tested on: hepatitis B, HEPG22.2.15; experiment: In vitro virus production test of hepatitis B, DNA copy number; assay type: cell-based
[3] = biological target: HIV-1 integrase (Human immunodeficiency virus type 1 group M subtype B, UniProt P04585); experiment: HIV-1 integrase inhibition assay; assay type: biochemical; set-up: HIV-1 Integrase Inhibition, sample reading / HIV-1 Integrase Inhibition, mean: unit not given here; conditions: for HIV-1 Integrase Inhibition, sample reading: sample 1, sample 2, hydrochloride salt
Excerpt: A biochemical integrase assay described by Craigie et at (HIV, vol. 2: A practical Approach) Biochemistry, Molecular Biology and Drug Discovery, Ed. J. Kam 1995) to screen agents for their ability to inhibit HIV-1 integrase. In this system, a kinased oligonucleotide serves as the target of 3′ processing and the subsequent strand transfer reaction. The 3′ processing reaction involves the removal of 2 nucleotides from the 3′ ends of the substrate and this is followed by the strand transfer reaction in which the 3′ ends are joined to the exposed 5′ ends. The 20 μl reaction mixture contains 25 mM MOPS (pH 7.2), […] BSA, 10 mM β-mercaptoethanol, 10% glycerol, 7.5 mM MnCl2, 25 nM (7 ng) substrate (Oligo's Etc., Wilsonville, Oreg.) and 200 nM (128 ng) integrase (NIAID AIDS Research and Reference Reagent Program, Bethesda, Md.). The reaction proceeds at 37° C. for 1-2 hours and is terminated by the addition of 20 μl of sequencing stop solution (JSB Amersham, Arlington Heights, Ill.). The reaction products are visualized by autoradiography following electrophoresis in 15% polyacrylamide 6M Urea gel. The substrate migrates as a 30 mer, the product of 3′ processing migrates as an N-2 band and the strand transfer products migrate more slowly at various sizes larger than the substrate.

[4] = biological target: T1, HIV-1 protease (Human immunodeficiency virus type 1 group M subtype B, UniProt P04585); experiment: Protease inhibition assay (fluorometric); assay type: biochemical; conditions: for Protease Inhibition, sample reading: sample 1, sample 2, hydrochloride salt
T1 construct: precludes use of the fluorometric HIV-1 protease assay; purchased Bachem
Procedure: Protease inhibition is evaluated using a fluorometric method. Enzyme (Bachem) is diluted to 116 μgm/ml in 50 mM NaOAC, 5 mM DTT, 2 mM EDTA, 10% glycerol (pH 5.0) and stored as 10 μl samples at −20° C., HIV protease substrates I (Molecular Probes) is diluted to a working concentration of 0.32 nmoles/μl. Enzyme (20 μl) and drug (20 μl) are added to each well of a microtiter plate as appropriate. Positive and negative controls are evaluated in parallel. Fluorescence is quantitated on Labsystems Fluroskan II using 355 nm/460 nm at 37° C. at time zero and at 30 minute intervals for 2 hours. In instances where autofluorescence precludes use of the fluorometric HIV-1 protease assay or confirmation of a result is required, an HPLC based protease assay can be employed.

[5] = tested on: Cryptococcus neoformans; experiment: Anti-fungal activity (NCCLS M-27A based), Cryptococcus neoformans; assay type: cell-based; conditions: Cryptococcus neoformans
Procedure: (§1) It was active against cryptococcus neoformans and curvularai lunata. The cidal activity for the C. neoformans is high enough that it is clear […] against this yeast. This test was conducted using a method based upon NCCLS reference method M-27A published in 1997. Solvent, medium and growth controls were set-up with the tests. Once these were read to validate the test performance, the QC fungi were read to insure they had expected results. These steps validated the test system. DMSO was used as a drug-chemical solvent. […] The 90% cut-off is necessary for azoles, which are static and not cidal. The FMC or cidal level was determined by sub-culturing a sample from each tube showing no growth.

[6] = tested on: Curvularia lunata; experiment: Anti-fungal activity (NCCLS M-27A based), Curvularia lunata; assay type: cell-based; conditions: Curvularia lunata; growth inhibited or reduced at least 90%
Procedure: as §1

[7] = tested on: vero cells; set-up: unit not given beside the values; conditions: African green monkey

What does the source list for Nc1ccn([C@@H]2CS[C@H](CO)O2)c(=O)n1 [3TC, lamivudine]?
Toxicity Values, % cell control ([1]; 0.0032 μg/ml): 90.8%; Toxicity Values, mean ([1]; 0.0032 μg/ml): 1.137; Toxicity Values, samples 1-3 ([1]; 0.0032 μg/ml): 1.009 and 1.173 and 1.230; Toxicity Values, % cell control ([1]; 0.01 μg/ml): 84.6%; Toxicity Values, mean ([1]; 0.01 μg/ml): 1.060; Toxicity Values, samples 1-3 ([1]; 0.01 μg/ml): 1.001 and 1.081 and 1.099; Toxicity Values, % cell control ([1]; 0.032 μg/ml): 94.3%; Toxicity Values, mean ([1]; 0.032 μg/ml): 1.181; Toxicity Values, samples 1-3 ([1]; 0.032 μg/ml): 1.074 and 1.153 and 1.316; Toxicity Values, mean ([1]; 0.1 μg/ml): 1.190; Toxicity Values, samples 1-3 ([1]; 0.1 μg/ml): 1.151 and 1.220 and 1.200; Toxicity Values, % cell control ([1]; 0.32 μg/ml): 93.6%; Toxicity Values, mean ([1]; 0.32 μg/ml): 1.172; Toxicity Values, samples 1-3 ([1]; 0.32 μg/ml): 1.082 and 1.207 and 1.227; Toxicity Values, % cell control ([1]; 1 μg/ml): 106.5%; Toxicity Values, mean ([1]; 1 μg/ml): 1.334; Toxicity Values, samples 1-3 ([1]; 1 μg/ml): 1.423 and 1.256 and 1.322; TC50 ([1]; first experiment): > 1 µg/mL; TC50 ([1]; replicate experiment): > 1 µg/mL; DNA Copy Number, % virus control ([2]; 0.0032 μg/ml): 97.8%; DNA Copy Number, mean ([2]; 0.0032 μg/ml): 280.4 per 3 μl; DNA Copy Number, samples 1-3 ([2]; 0.0032 μg/ml): 265.4 per 3 μl and 328.0 per 3 μl and 247.9 per 3 μl; DNA Copy Number, % virus control ([2]; 0.01 μg/ml): 87.8%; DNA Copy Number, mean ([2]; 0.01 μg/ml): 251.7 per 3 μl; DNA Copy Number, samples 1-3 ([2]; 0.01 μg/ml): 286.1 per 3 μl and 276.7 per 3 μl; DNA Copy Number, % virus control ([2]; 0.032 μg/ml): 80.4%; DNA Copy Number, mean ([2]; 0.032 μg/ml): 230.4 per 3 μl; DNA Copy Number, samples 1-3 ([2]; 0.032 μg/ml): 243.2 per 3 μl and 255.3 per 3 μl; DNA Copy Number, % virus control ([2]; 0.1 μg/ml): 24.2%; DNA Copy Number, mean ([2]; 0.1 μg/ml): 69.4 per 3 μl; DNA Copy Number, samples 1-3 ([2]; 0.1 μg/ml): 73.0 per 3 μl and 74.8 per 3 μl and 60.5 per 3 μl; DNA Copy Number, % virus control ([2]; 0.32 μg/ml): 13.1%; DNA Copy Number, mean ([2]; 0.32 μg/ml): 46.1 per 3 μl; DNA Copy Number, samples 1-3 ([2]; 0.32 μg/ml): 36.7 per 3 μl and 45.1 per 3 μl and 56.5 per 3 μl; DNA Copy Number, % virus control ([2]; 1 μg/ml): 1.4%; DNA Copy Number, mean ([2]; 1 μg/ml): 4.0 per 3 μl; IC50 ([2]; HepG2 2.2.15, first experiment): 0.089 µg/mL (≈ 0.388 µM); IC50 ([2]; HepG2 2.2.15, replicate experiment): 0.021 µg/mL (≈ 0.0916 µM)

With Cl.c1csc(-c2nc3ncccc3[nH]2)c1 [2-(2-thienyl)-imidazolo [4,5-b]pyridine hydrochloride salt] as the compound, how does the pEC50 [3] read?
The pEC50 was under 3.38.

And the “HIV-1 Integrase Inhibition, mean” value ([3]; 0.1 μg/ml)?
The value was 9144.

And the “HIV-1 Integrase Inhibition, sample reading” value ([3]; 0.1 μg/ml)?
The value was 9338.5 and 8948.8.

And the “HIV-1 Integrase Inhibition, mean” value ([3]; 1 μg/ml)?
The value was 12194.

What about the “HIV-1 Integrase Inhibition, sample reading” value ([3]; 1 μg/ml) of the same compound?
The value was 11838.2 and 12550.7.

And the “HIV-1 Integrase Inhibition, mean” value ([3]; 10 μg/ml)?
Its value is 12299.

And the “HIV-1 Integrase Inhibition, sample reading” value ([3]; 10 μg/ml)?
The value was 10848.3 and 13750.3.

What about the “HIV-1 Integrase Inhibition, mean” value ([3]; 100 μg/ml) of the same compound?
The value was 10570.

What about the “HIV-1 Integrase Inhibition, sample reading” value ([3]; 100 μg/ml) of the same compound?
The value was 10212.5 and 10928.4.

And the “Protease Inhibition, mean” value ([4]; 1 nM)?
The value was 26.3.

And the “Protease Inhibition, sample reading” value ([4]; 1 nM)?
The value was 29.9 and 22.6.

What about the “Protease Inhibition, mean” value ([4]; 10 nM) of the same compound?
The value was 35.0.

And the “Protease Inhibition, sample reading” value ([4]; 10 nM)?
The value was 36.0 and 34.1.

What about the “Protease Inhibition, mean” value ([4]; 100 nM) of the same compound?
The value was 84.8.

And the “Protease Inhibition, sample reading” value ([4]; 100 nM)?
Its value is 85.4 and 84.2.

What about the “Protease Inhibition, mean” value ([4]; 1000 nM) of the same compound?
The value was 247.3.

And the “Protease Inhibition, sample reading” value ([4]; 1000 nM)?
The value was 245.7 and 248.8.

How did the MFC ([5]; cidal level) turn out when c1ccc2[nH]c(-c3cscn3)nc2c1 [Thia, thiabendazole] was run?
The MFC was over 32 µg/mL.

And the MIC ([5]; growth inhibited or reduced at least 90%)?
Its MIC is 16 µg/mL (≈ 79.5 µM).

And the MIC [6]?
The MIC was at least 32 µg/mL.

Nc1nc2c(ncn2COCCO)c(=O)[nH]1 [Acyclovir] was tested. Which TC50 [7] did it give?
Its TC50 is over 1.

— US20030232851A1, “Viral treatment” (The Procter & Gamble Company, priority 1999, published 2003)
